Measurements published in US6777190B1, “Crosstalk inhibitors and their uses” (Biosite, Inc., priority 1991, dated 2004).

System: monoclonal antibodies to morphine (morp Ab)
Assay: Crosstalk inhibitor test: colloidal gold ligand analogue conjugate binding at the morp Ab zone of a nylon membrane (color density DE*)
Details: 5 μl (1.1 μmol) inhibitor, Table 3 #6 vs #1

SMILES: O=C(O)CCCCCNC(=O)C1CCC(CN2C(=O)CC(SCCC(=O)O)C2=O)CC1 (stereo not shown) [CCM-MPA]
- decrease of the morphine response: about 30%
